Measured values from the NIST ThermoML archive (doi:10.1021/je050065n).
± gives the expanded uncertainty stated by the source.

Columns and labels:
[1] = Crystal
[2] = Molar enthalpy of transition or fusion; details: Crystal
[3] = molar heat capacity at constant pressure; details: 101.33 kPa

CCCCCCCCCCCCC(=O)OCC [ethyl tridecanoate]
Triple point temperature [1]: 272.4 ± 0.3 K | Molar enthalpy of transition or fusion [2]: 9.728 ± 0.0717 kcal/mol | molar heat capacity at constant pressure ([3]; 203.72 K, Crystal): 303.18 ± 4 J/K/mol | molar heat capacity at constant pressure ([3]; 204.3 K, Crystal): 304.48 ± 4 J/K/mol | molar heat capacity at constant pressure ([3]; 206.07 K, Crystal): 306.99 ± 4.1 J/K/mol | molar heat capacity at constant pressure ([3]; 209.03 K, Crystal): 310.71 ± 4.1 J/K/mol | molar heat capacity at constant pressure ([3]; 211.98 K, Crystal): 314.26 ± 4.1 J/K/mol | molar heat capacity at constant pressure ([3]; 214.92 K, Crystal): 318.07 ± 4.1 J/K/mol | molar heat capacity at constant pressure ([3]; 217.87 K, Crystal): 321.89 ± 4.2 J/K/mol | molar heat capacity at constant pressure ([3]; 220.82 K, Crystal): 325.88 ± 4.2 J/K/mol | molar heat capacity at constant pressure ([3]; 226.72 K, Crystal): 334 ± 4.3 J/K/mol | molar heat capacity at constant pressure ([3]; 229.65 K, Crystal): 338.41 ± 4.3 J/K/mol | molar heat capacity at constant pressure ([3]; 232.57 K, Crystal): 342.7 ± 4.3 J/K/mol | molar heat capacity at constant pressure ([3]; 235.47 K, Crystal): 347.41 ± 4.4 J/K/mol | molar heat capacity at constant pressure ([3]; 238.34 K, Crystal): 352.35 ± 4.4 J/K/mol | molar heat capacity at constant pressure ([3]; 241.19 K, Crystal): 357.3 ± 4.5 J/K/mol | molar heat capacity at constant pressure ([3]; 244.03 K, Crystal): 362.39 ± 4.5 J/K/mol | molar heat capacity at constant pressure ([3]; 246.84 K, Crystal): 368.11 ± 4.5 J/K/mol | molar heat capacity at constant pressure ([3]; 249.63 K, Crystal): 374.08 ± 4.6 J/K/mol | molar heat capacity at constant pressure ([3]; 252.4 K, Crystal): 380.86 ± 4.7 J/K/mol | molar heat capacity at constant pressure ([3]; 255.15 K, Crystal): 387.34 ± 4.7 J/K/mol | molar heat capacity at constant pressure ([3]; 257.88 K, Crystal): 398.08 ± 4.8 J/K/mol | molar heat capacity at constant pressure ([3]; 260.57 K, Crystal): 413.23 ± 4.9 J/K/mol | molar heat capacity at constant pressure ([3]; 277.28 K, Liquid): 486.51 ± 2.8 J/K/mol | molar heat capacity at constant pressure ([3]; 279.73 K, Liquid): 487.34 ± 2.8 J/K/mol | molar heat capacity at constant pressure ([3]; 282.18 K, Liquid): 488.17 ± 2.8 J/K/mol | molar heat capacity at constant pressure ([3]; 288.64 K, Liquid): 490.72 ± 2.8 J/K/mol | molar heat capacity at constant pressure ([3]; 291.29 K, Liquid): 492.03 ± 2.8 J/K/mol | molar heat capacity at constant pressure ([3]; 293.93 K, Liquid): 493 ± 2.8 J/K/mol | molar heat capacity at constant pressure ([3]; 296.56 K, Liquid): 494.67 ± 2.8 J/K/mol | molar heat capacity at constant pressure ([3]; 299.2 K, Liquid): 496 ± 2.8 J/K/mol | molar heat capacity at constant pressure ([3]; 301.82 K, Liquid): 497.42 ± 2.8 J/K/mol | molar heat capacity at constant pressure ([3]; 304.44 K, Liquid): 498.94 ± 2.8 J/K/mol | molar heat capacity at constant pressure ([3]; 307.06 K, Liquid): 500.72 ± 2.8 J/K/mol | molar heat capacity at constant pressure ([3]; 309.67 K, Liquid): 502.48 ± 2.8 J/K/mol | molar heat capacity at constant pressure ([3]; 312.27 K, Liquid): 503.98 ± 2.8 J/K/mol | molar heat capacity at constant pressure ([3]; 314.87 K, Liquid): 505.99 ± 2.8 J/K/mol | molar heat capacity at constant pressure ([3]; 317.47 K, Liquid): 507.58 ± 2.8 J/K/mol | molar heat capacity at constant pressure ([3]; 320.06 K, Liquid): 509.22 ± 2.8 J/K/mol
